This experiment concerns the target T1, human TLR8 (Homo sapiens, UniProt Q9NR97).
T1 sequence (Q9NR97 27-1041): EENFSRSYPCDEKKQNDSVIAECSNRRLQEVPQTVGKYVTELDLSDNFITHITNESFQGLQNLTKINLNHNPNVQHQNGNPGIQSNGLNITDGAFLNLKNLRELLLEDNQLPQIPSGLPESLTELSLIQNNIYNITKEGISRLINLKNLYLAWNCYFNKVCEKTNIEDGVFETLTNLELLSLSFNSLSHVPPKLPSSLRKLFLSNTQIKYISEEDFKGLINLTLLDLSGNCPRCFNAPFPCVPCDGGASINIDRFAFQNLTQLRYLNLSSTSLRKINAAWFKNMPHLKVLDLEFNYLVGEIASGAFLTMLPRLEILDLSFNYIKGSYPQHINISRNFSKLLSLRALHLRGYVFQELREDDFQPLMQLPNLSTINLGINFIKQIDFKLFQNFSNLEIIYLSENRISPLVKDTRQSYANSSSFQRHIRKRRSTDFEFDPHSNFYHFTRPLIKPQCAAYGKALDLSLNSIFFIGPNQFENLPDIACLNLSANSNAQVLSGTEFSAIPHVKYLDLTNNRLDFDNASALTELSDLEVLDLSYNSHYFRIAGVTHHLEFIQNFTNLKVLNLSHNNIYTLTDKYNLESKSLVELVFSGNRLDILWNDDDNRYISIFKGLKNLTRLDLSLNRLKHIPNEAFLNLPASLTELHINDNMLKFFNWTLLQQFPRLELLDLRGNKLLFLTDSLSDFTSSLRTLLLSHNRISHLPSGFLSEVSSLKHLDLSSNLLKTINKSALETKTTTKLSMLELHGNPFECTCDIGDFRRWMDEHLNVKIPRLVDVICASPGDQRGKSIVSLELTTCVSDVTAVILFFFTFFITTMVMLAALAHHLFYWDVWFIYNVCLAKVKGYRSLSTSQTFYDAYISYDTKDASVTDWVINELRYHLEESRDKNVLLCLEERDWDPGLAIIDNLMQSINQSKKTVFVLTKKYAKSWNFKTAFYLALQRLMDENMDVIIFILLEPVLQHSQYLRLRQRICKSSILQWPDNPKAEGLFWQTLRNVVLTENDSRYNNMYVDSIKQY
Nature of the experiment: HEK293-Blue-hTLR-8 cells assay (SEAP reporter, R848 stimulation). It counts as cell-based. Particulars: HEK293-Blue-hTLR8 cells, R848, 20 hrs incubation; read-out: HEK/hTLR8 IC50. How it is done: The following tests were carried out in order to determine the activity of the compounds of formula (I), (Ia) or (Ib) in HEK293-Blue-hTLR-7/8/9 cells assay.
HEK293-Blue-hTLR-8 Cells Assay:
A stable HEK293-Blue-hTLR-8 cell line was purchased from InvivoGen (Cat.#: hkb-htlr8, San Diego, Calif., USA). These cells were originally designed for studying the stimulation of human TLR8 by monitoring the activation of NF-κB. A SEAP (secreted embryonic alkaline phosphatase) reporter gene was placed under the control of the IFN-β minimal promoter fused to five NF-κB and AP-1-binding sites. The SEAP was induced by activating NF-κB and AP-1 via stimulating HEK-Blue hTLR8 cells with TLR8 ligands. Therefore the reporter expression was declined by TLR8 antagonist under the stimulation of a ligand, such as R848, for incubation of 20 hrs. The cell culture supernatant SEAP reporter activity was determined using QUANTI-Blue™ kit (Cat.#: rep-qb1, Invivogen, San Diego, Ca, USA) at a wavelength of 640 nm, a detection medium that turns purple or blue in the presence of alkaline phosphatase.
HEK293-Blue-hTLR8 cells were incubated at a density of 250,000-450,000 cells/mL in a volume of 170 μL in a 96-well plate in Dulbecco's Modified Eagle's medium (DMEM) containing 4.5 g/L glucose, 50 U/mL penicillin, […], […], 2 mM L-glutamine, 10% (v/v) heat-inactivated fetal bovine serum with addition of 20 μL test compound in a serial dilution in the presence of final DMSO at 1% and 10 μL of 60 uM R848 in above DMEM, perform incubation under 37° C. in a CO2 incubator for 20 hrs. Then 20 μL of the supernatant from each well was incubated with 180 μL Quanti-blue substrate solution at 37° C. for 2 hrs and the absorbance was read at 620˜655 nm using a spectrophotometer. The signaling pathway that TLR8 activation leads to downstream NF-κB activation has been widely accepted, and therefore similar reporter assay was modified for evaluating TLR8 antagonist.

This passage reports IC50 results from patent US20230002375A1, “HYDROPYRAZINO[1,2-B]ISOQUINOLINE COMPOUNDS FOR THE TREATMENT OF AUTOIMMUNE DISEASE” (Hoffmann-La Roche Inc., priority 2019, published 2023).

`C[C@@H]1CN(c2ccc(C#N)c3ncccc23)C[C@@H]2Cc3cc(N4C[C@@H]5CNCCN5C4=O)ccc3CN21` (single isomer, unassigned) [Example 17A]: the IC50 worked out at 8 nM.
As for `C[C@@H]1CN(c2ccc(C#N)c3ncccc23)C[C@@H]2Cc3cc(N4C[C@H]5CNCCN5C4=O)ccc3CN21` (single isomer, unassigned) [Example 17B], the figure is 2.4 nM; as for `C[C@@H]1CN(c2ccc(C#N)c3ncccc23)C[C@@H]2Cc3cc(N4CC5NCCOC5C4)ccc3CN21` (stereo in doubt) [Example 10, 5-[(4R,11aS)-9-[(4aS,7aS)-3,4,4a,5,7,7a-hexahydro-2H-pyrrolo[3,4-b][1,4]oxazin-6-yl]-4-methyl-1,3,4,6,11,11a-hexahydropyrazino[1,2-b]isoquinolin-2-yl]quinoline-8-carbonitrile], 1.5 nM; as for `C[C@@H]1CN(c2ccc(C#N)c3ncccc23)C[C@@H]2Cc3ccc(N4CCOCC(N)C4)cc3CN21` (stereo partly drawn) [Example 1, 5-[(4R,11aS)-8-(6-amino-1,4-oxazepan-4-yl)-4-methyl-1,3,4,6,11,11a-hexahydropyrazino[1,2-b]isoquinolin-2-yl]quinoline-8-carbonitrile], 14.5 nM.
Next, `C[C@@H]1CN(c2ccc(C#N)c3ncccc23)C[C@@H]2Cc3ccc(NCCN4CC[C@H](O)C4)cc3CN21` [Example 2, 5-[(4R,11aS)-8-[2-[(3S)-3-hydroxypyrrolidin-1-yl]ethylamino]-4-methyl-1,3,4,6,11,11a-hexahydropyrazino[1,2-b]isoquinolin-2-yl]quinoline-8-carbonitrile]: 4.2 nM; `C[C@@H]1CN(c2ccc(C#N)c3ncccc23)C[C@@H]2Cc3ccc(OCCN(C)C)cc3CN21` [Example 5, 5-[(4R,11aS)-8-[2-(dimethylamino)ethoxy]-4-methyl-1,3,4,6,11,11a-hexahydropyrazino[1,2-b]isoquinolin-2-yl]quinoline-8-carbonitrile]: 9.2 nM.
Next, `C[C@@H]1CN(c2ccc(C#N)c3ncccc23)C[C@@H]2Cc3cc(N[C@@H]4CNC[C@@H]4F)ccc3CN21` [Example 6, 5-[(4R,11aS)-4-methyl-9-[[(3R,4S)-4-fluoropyrrolidin-3-yl]amino]-1,3,4,6,11,11a-hexahydropyrazino[1,2-b]isoquinolin-2-yl]quinoline-8-carbonitrile]: 26.1 nM.
In the case of `CO[C@H]1CNC[C@H]1Nc1ccc2c(c1)C[C@H]1CN(c3ccc(C#N)c4ncccc34)C[C@@H](C)N1C2` [Example 7, 5-[(4R,11aS)-9-[[(3R,4S)-4-methoxypyrrolidin-3-yl]amino]-4-methyl-1,3,4,6,11,11a-hexahydropyrazino[1,2-b]isoquinolin-2-yl]quinoline-8-carbonitrile], the IC50 turned out to be 13.5 nM.
Regarding `C[C@@H]1CN(c2ccc(C#N)c3ncccc23)C[C@@H]2Cc3cc(N4C[C@@H](F)[C@@H](N)C4)ccc3CN21` [Example 8, 5-[(4R,11aS)-9-[(3S,4R)-3-amino-4-fluoro-pyrrolidin-1-yl]-4-methyl-1,3,4,6,11,11a-hexahydropyrazino[1,2-b]isoquinolin-2-yl]quinoline-8-carbonitrile], the IC50 was found to be 21.5 nM.
In the case of `CO[C@H]1CN(c2ccc3c(c2)C[C@H]2CN(c4ccc(C#N)c5ncccc45)C[C@@H](C)N2C3)C[C@H]1N` [Example 9, 5-[(4R,11aS)-9-[(3R,4S)-3-amino-4-methoxy-pyrrolidin-1-yl]-4-methyl-1,3,4,6,11,11a-hexahydropyrazino[1,2-b]isoquinolin-2-yl]quinoline-8-carbonitrile], the IC50 was found to be 2.3 nM.
Next, `C[C@@H]1CN(c2ccc(C#N)c3ncccc23)C[C@@H]2Cc3cc(OCCN(C)C)ccc3CN21` [Example 11, 5-[(4R,11aS)-9-[2-(dimethylamino)ethoxy]-4-methyl-1,3,4,6,11,11a-hexahydropyrazino[1,2-b]isoquinolin-2-yl]quinoline-8-carbonitrile]: 11.1 nM; `C[C@@H]1CN(c2ccc(C#N)c3ncccc23)C[C@@H]2Cc3cc(OC[C@@H]4CCN4)ccc3CN21` [Example 12, 5-[(4R,11aS)-9-[[(2S)-azetidin-2-yl]methoxy]-4-methyl-1,3,4,6,11,11a-hexahydropyrazino[1,2-b]isoquinolin-2-yl]quinoline-8-carbonitrile]: 22.9 nM.
In the case of `C[C@@H]1CN(c2ccc(C#N)c3ncccc23)C[C@@H]2Cc3cc(N4CCN(C(=O)C(C)(C)N)CC4)ccc3CN21` [Example 13, 5-[(4R,11aS)-9-[4-(2-amino-2-methyl-propanoyl)piperazin-1-yl]-4-methyl-1,3,4,6,11,11a-hexahydropyrazino[1,2-b]isoquinolin-2-yl]quinoline-8-carbonitrile], the IC50 was determined as 37.5 nM.
As for `C[C@@H]1CN(c2ccc(C#N)c3ncccc23)C[C@@H]2Cc3cc(N4CCN(C(=O)[C@]5(C)CCCN5)CC4)ccc3CN21` [Example 14, 5-[(4R,11aS)-4-methyl-9-[4-[(2S)-2-methylpyrrolidine-2-carbonyl]piperazin-1-yl]-1,3,4,6,11,11a-hexahydropyrazino[1,2-b]isoquinolin-2-yl]quinoline-8-carbonitrile], the figure is 1.4 nM.
`C[C@@H]1CN(c2ccc(C#N)c3ncccc23)C[C@@H]2Cc3cc(N4C[C@@H]5C[C@H]4CN5C(=O)C(C)(C)N)ccc3CN21` [Example 15, 5-[(4R,11aS)-9-[(1S,4S)-5-(2-amino-2-methyl-propanoyl)-2,5-diazabicyclo[2.2.1]heptan-2-yl]-4-methyl-1,3,4,6,11,11a-hexahydropyrazino[1,2-b]isoquinolin-2-yl]quinoline-8-carbonitrile]: the IC50 came out at 4.7 nM.
Next, `C[C@@H]1CN(c2ccc(C#N)c3ncccc23)C[C@@H]2Cc3cc(N4CC(N)CC4=O)ccc3CN21` (stereo partly drawn) [Example 16, 5-[(4R,11aS)-9-(4-amino-2-oxo-pyrrolidin-1-yl)-4-methyl-1,3,4,6,11,11a-hexahydropyrazino[1,2-b]isoquinolin-2-yl]quinoline-8-carbonitrile]: 5.3 nM; `C[C@@H]1CN(c2ccc(C#N)c3ncccc23)C[C@@H]2Cc3cc(N4CC5CCNCC5C4=O)ccc3CN21` (stereo partly drawn) [Example 18, 5-[(4R,11aS)-4-methyl-9-(3-oxo-3a,4,5,6,7,7a-hexahydro-1H-pyrrolo[3,4-c]pyridin-2-yl)-1,3,4,6,11,11a-hexahydropyrazino[1,2-b]isoquinolin-2-yl]quinoline-8-carbonitrile]: 14.5 nM.
Next, `C[C@@H]1CN(c2ccc(C#N)c3ncccc23)C[C@@H]2Cc3cc(N4CC5CNCCC5C4=O)ccc3CN21` (stereo partly drawn) [Example 19, 5-[(4R,11aS)-4-methyl-9-(1-oxo-3a,4,5,6,7,7a-hexahydro-3H-pyrrolo[3,4-c]pyridin-2-yl)-1,3,4,6,11,11a-hexahydropyrazino[1,2-b]isoquinolin-2-yl]quinoline-8-carbonitrile]: 4.2 nM.
